Assays:
Format in all cases: biochemical
Details in all cases: recombinant human kinase
KIT = target: T1, KIT (Homo sapiens, UniProt P10721); assay: Inhibitory action on KIT (ELISA)
T1 construct: purchased Carna Biosciences Inc. 08-156
Protocol: (§1) A test compound was dissolved in dimethyl sulfoxide to make a 10 mM solution, which was stored in a dark place at 4° C. until use.
(§2) Protein tyrosine kinases (recombinant human kinases) used in the study were the following products from Carna Biosciences Inc. (Kobe, Japan).
(§3) VEGFR-1 (FLT 1) (product number: 08-189) VEGFR-3 (FLT 4) (product number: 08-190) RON (product number: 08-152) RET (product number: 08-159) KIT (product number: 08-156)
(§4) Kinase activity was measured in a mobility shift assay (MSA) method (J. Biomolecular Screening, 11, 359-368, 2006) using QuickScout Screening Assist™ (Carna Biosciences Inc., commercial kit), and enzyme-linked immunoassay (ELISA).
10 μl of the test substance solution obtained by dissolving or suspending in the assay buffer (15 mM Tris, 0.01% Tween 20, 2 mM DTT, pH 7.5) (4× final concentration), or 10 μl of a solvent (4% dimethyl sulfoxide-assay buffer) was dispensed into a DELFIA Streptavidin-coated clear plate (PerkinElmer Inc., product number 4009-0010). Then, 10 μl of an ATP/substrate/metal solution of QuickScout Screening Assist™ ELISA was added. Additionally, 20 μl of the kinase solution diluted with the assay buffer was added to initiate a reaction. For a blank, only 20 μl of the assay buffer was added. The assay method was in accordance with the protocol of QuickScout Screening Assist™ ELISA. After the reaction, the absorbance at 450 nm in each well was measured using SpectraMax (Molecular Devices, California, U.S.A).

VEGFR-1 (FLT 1) = target: T2, VEGFR-1 (FLT 1) (Homo sapiens, UniProt P17948); assay: Tyrosine kinase inhibition, mobility shift assay (MSA)
T2 construct: purchased Carna Biosciences Inc. 08-189
Protocol: as §1, §2, §3, §4
(§5) 5 μl of the test substance solution obtained by dissolving or suspending in an assay buffer (20 mM Hepes, 0.01% Triton X-100, 1 mM dithiothreitol, pH 7.4) (4× final concentration) or 5 μl of a solvent (4% dimethyl sulfoxide-assay buffer) was dispensed into a polypropylene 384-well plate (Greiner Bio-One, product number 781280). Then, 5 μl of QuickScout Screening Assist™ MSA in an ATP/substrate/metal solution was added. Additionally, 10 μl of the kinase solution diluted with the assay buffer was added to initiate a reaction. For a blank, only 10 μl of the assay buffer was added. The kinase concentration and reaction conditions were in accordance with the protocol of QuickScout Screening Assist™ MSA. Then, the reaction was terminated by addition of 60 μl of a termination buffer of the QuickScout Screening Assist™ MSA, and the amount of a substrate (S) and a phosphorylated substrate (P) in the reaction solution were determined using LabChip3000 (Caliper Life Science, Massachusetts, U.S.A.) in accordance with the protocol of QuickScout Screening Assist™ MSA. The amounts of the S and P were represented by respective separated peak height. […] It was on the condition that the signal was determined as P/(P+S).

VEGFR-3 (FLT 4) = target: T3, VEGFR-3 (FLT 4) (Homo sapiens, UniProt P35916); assay: as above
T3 construct: purchased Carna Biosciences Inc. 08-190
Protocol: as §1, §2, §3, §4, §5

RON = target: T4, RON (Homo sapiens, UniProt Q04912); assay: as above
T4 construct: purchased Carna Biosciences Inc. 08-152
Protocol: as §1, §2, §3, §4, §5

RET = target: T5, RET (Homo sapiens, UniProt P07949); assay: as above
T5 construct: purchased Carna Biosciences Inc. 08-159
Protocol: as §1, §2, §3, §4, §5

T4 sequence (Q04912 25-1400): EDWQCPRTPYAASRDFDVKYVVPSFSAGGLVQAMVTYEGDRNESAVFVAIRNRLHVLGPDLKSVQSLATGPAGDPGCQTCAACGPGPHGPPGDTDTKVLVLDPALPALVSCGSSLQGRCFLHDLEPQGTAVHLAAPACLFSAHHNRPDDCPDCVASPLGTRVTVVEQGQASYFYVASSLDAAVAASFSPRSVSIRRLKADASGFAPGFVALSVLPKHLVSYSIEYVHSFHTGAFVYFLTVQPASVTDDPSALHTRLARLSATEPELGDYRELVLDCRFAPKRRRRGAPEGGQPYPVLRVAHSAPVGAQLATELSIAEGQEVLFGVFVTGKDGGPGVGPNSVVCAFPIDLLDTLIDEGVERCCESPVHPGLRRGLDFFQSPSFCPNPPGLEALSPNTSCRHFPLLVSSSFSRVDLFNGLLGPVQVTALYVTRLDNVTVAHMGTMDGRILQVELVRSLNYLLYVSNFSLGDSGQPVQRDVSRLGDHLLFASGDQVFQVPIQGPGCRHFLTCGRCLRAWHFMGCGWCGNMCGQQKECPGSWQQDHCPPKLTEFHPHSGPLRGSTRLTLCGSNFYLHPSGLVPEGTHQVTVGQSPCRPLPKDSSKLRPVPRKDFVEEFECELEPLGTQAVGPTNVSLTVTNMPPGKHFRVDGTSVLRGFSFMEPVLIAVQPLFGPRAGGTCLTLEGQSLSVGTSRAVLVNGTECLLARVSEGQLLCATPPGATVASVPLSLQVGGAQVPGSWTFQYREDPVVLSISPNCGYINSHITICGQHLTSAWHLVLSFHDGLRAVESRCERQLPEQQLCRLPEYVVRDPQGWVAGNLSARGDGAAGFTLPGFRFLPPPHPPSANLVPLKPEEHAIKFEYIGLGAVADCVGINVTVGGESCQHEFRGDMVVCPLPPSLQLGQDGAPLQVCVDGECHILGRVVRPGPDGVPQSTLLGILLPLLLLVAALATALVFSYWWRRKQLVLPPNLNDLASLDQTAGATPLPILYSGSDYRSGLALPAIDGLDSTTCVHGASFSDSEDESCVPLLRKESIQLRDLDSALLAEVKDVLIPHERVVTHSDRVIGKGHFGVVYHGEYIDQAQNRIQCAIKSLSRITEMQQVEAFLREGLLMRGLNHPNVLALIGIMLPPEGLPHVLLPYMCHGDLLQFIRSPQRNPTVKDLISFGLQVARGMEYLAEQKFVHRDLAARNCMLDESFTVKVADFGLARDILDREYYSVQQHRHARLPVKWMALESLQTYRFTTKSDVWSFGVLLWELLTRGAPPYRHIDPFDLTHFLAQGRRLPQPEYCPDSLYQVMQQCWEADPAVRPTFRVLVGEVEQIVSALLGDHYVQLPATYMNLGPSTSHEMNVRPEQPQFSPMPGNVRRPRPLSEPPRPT
T2 sequence (P17948 27-1338): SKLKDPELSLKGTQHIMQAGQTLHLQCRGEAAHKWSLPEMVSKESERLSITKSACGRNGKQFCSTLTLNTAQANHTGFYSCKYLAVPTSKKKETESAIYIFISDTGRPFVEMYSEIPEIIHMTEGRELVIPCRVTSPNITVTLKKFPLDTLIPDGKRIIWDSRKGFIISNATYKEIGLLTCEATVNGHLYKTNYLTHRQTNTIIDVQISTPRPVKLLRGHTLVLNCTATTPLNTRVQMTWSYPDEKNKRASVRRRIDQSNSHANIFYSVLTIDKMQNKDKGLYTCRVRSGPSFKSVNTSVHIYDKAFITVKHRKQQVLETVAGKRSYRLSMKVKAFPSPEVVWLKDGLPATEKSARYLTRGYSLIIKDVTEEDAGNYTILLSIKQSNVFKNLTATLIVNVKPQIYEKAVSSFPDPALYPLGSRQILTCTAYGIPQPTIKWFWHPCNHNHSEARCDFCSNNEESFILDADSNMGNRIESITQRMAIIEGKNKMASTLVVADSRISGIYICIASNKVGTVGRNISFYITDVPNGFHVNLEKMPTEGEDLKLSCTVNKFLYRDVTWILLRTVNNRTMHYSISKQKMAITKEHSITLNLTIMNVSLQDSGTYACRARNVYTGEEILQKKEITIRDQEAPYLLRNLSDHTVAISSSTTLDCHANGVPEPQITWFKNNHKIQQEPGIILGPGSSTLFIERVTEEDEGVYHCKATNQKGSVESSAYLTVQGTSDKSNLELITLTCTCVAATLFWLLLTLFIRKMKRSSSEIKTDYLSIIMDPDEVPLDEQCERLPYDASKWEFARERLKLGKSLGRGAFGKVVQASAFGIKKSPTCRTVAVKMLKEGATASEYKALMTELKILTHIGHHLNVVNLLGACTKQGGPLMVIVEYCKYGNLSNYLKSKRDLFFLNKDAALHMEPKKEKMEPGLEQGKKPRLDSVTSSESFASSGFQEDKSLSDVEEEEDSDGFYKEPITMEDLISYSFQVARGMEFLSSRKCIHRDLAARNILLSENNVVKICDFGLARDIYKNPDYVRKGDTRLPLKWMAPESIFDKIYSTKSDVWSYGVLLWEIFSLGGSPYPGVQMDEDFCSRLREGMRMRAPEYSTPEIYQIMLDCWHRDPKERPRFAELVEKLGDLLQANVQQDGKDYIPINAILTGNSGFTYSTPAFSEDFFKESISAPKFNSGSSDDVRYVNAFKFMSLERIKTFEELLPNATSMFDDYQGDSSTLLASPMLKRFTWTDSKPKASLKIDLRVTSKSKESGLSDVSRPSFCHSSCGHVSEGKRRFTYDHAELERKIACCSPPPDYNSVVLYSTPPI
T5 sequence (P07949 29-1114): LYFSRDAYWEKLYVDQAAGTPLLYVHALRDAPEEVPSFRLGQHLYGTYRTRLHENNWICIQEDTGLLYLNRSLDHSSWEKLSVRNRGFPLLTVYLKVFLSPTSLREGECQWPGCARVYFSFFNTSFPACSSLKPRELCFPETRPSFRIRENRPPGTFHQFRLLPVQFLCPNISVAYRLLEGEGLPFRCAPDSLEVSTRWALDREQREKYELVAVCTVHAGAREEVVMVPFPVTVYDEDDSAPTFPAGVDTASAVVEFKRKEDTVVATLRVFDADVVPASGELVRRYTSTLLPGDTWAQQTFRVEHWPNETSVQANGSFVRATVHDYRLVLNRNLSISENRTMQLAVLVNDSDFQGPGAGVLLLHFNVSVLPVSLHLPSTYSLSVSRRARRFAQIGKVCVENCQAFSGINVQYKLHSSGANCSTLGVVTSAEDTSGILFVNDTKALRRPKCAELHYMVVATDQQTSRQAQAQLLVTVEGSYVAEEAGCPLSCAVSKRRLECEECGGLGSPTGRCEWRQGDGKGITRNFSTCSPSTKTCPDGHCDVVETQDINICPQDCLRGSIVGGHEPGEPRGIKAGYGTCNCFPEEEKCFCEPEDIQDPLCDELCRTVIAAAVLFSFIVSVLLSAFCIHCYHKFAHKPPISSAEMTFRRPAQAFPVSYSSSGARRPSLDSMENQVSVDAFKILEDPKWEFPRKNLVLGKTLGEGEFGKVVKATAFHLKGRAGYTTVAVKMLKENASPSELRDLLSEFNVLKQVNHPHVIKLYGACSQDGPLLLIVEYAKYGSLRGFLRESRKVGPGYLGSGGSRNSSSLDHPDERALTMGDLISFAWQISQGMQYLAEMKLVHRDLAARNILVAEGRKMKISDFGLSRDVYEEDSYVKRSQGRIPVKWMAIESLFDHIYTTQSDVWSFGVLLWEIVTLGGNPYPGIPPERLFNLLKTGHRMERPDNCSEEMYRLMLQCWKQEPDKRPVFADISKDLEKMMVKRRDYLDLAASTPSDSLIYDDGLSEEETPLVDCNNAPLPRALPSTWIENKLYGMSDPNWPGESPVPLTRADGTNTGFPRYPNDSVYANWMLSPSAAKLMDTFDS
T3 sequence (P35916 25-1363): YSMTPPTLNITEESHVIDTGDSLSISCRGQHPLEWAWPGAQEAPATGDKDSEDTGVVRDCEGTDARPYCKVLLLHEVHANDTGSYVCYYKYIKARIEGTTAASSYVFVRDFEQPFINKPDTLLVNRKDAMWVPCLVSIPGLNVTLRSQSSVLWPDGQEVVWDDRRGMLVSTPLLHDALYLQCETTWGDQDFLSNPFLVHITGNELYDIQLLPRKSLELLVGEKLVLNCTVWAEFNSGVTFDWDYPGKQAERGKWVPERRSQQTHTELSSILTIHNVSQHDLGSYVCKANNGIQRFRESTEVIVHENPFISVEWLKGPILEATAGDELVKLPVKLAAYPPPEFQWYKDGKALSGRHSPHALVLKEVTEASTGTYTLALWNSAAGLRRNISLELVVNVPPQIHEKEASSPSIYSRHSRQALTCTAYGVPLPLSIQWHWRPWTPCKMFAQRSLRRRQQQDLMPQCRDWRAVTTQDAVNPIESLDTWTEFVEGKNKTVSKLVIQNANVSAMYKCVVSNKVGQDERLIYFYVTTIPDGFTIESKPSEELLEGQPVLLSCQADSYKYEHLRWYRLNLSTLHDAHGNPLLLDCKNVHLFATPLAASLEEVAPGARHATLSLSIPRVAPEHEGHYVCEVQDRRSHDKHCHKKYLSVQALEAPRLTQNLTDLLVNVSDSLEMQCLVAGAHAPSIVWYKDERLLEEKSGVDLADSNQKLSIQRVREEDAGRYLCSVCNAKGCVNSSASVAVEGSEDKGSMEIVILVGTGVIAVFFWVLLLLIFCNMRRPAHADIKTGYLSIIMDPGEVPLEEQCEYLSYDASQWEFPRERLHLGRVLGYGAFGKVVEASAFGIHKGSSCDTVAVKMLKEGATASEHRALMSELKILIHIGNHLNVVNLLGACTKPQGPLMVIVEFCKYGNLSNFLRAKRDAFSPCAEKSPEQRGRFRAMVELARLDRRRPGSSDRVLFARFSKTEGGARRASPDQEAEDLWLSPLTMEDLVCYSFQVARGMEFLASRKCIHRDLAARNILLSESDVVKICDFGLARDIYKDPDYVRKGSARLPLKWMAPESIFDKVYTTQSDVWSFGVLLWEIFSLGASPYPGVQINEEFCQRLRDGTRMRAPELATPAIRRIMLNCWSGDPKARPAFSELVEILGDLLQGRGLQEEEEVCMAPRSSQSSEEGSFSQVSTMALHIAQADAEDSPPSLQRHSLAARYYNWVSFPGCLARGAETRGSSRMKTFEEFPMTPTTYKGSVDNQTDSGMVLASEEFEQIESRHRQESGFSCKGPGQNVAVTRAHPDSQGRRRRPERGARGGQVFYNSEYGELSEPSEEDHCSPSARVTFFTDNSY

| SMILES | IC50 (KIT) | IC50 (VEGFR-1 (FLT 1)) | IC50 (VEGFR-3 (FLT 4)) | IC50 (RON) | IC50 (RET) |
| --- | --- | --- | --- | --- | --- |
| O=C(Nc1cc(Oc2cc(F)c(NC(=O)C3(C(=O)Nc4ccc(F)cc4)CC3)cc2F)ccn1)N1CC(CO)C1 [N-(2,5-Difluoro-4-{[2-({[3-(hydroxymethyl)azetidin-1-yl]carbonyl}amino)pyridin-4-yl]oxy}phenyl)-N′-(4-fluorophenyl)cyclopropane-1,1-dicarboxamide] | 140 nM | 14 nM | 6.2 nM | 2.6 nM | 28 nM |
| CN1CCN(C2CCN(C(=O)Nc3cc(Oc4cc(F)c(NC(=O)C5(C(=O)Nc6ccc(F)cc6)CC5)cc4F)ccn3)CC2)CC1 [N-(2,5-Difluoro-4-{[2-({[4-(4-methylpiperazin-1-yl)piperidin-1-yl]carbonyl}amino)pyridin-4-yl]oxy}phenyl)-N′-(4-fluorophenyl)cyclopropane-1,1-dicarboxamide] | 350 nM | 21 nM | 22 nM | 2.4 nM | 38 nM |
| CN1CCC(N(C)C(=O)Nc2cc(Oc3cc(F)c(NC(=O)C4(C(=O)Nc5ccc(F)cc5)CC4)cc3F)ccn2)CC1 [N-(2,5-Difluoro-4-{[2-({[methyl(1-methylpiperidin-4-yl)amino]carbonyl}amino)pyridin-4-yl]oxy}phenyl)-N′-(4-fluorophenyl)cyclopropane-1,1-dicarboxamide] | 560 nM | 12 nM | 11 nM | 1.8 nM | 36 nM |
| O=C(Nc1cc(Oc2ccc(NC(=O)C3(C(=O)Nc4ccc(F)cc4)CC3)c(F)c2)ccn1)N1CCC1 [N-[4-({2-[(Azetidin-1-ylcarbonyl)amino]pyridin-4-yl}oxy)-2-fluorophenyl]-N′-(4-fluorophenyl)cyclopropane-1,1-dicarboxamide] | 380 nM | 71 nM | 36 nM | 26 nM | 99 nM |
| O=C(Nc1cc(Oc2cc(F)c(NC(=O)C3(C(=O)Nc4ccc(F)cc4)CC3)cc2F)ccn1)N1CC(O)C1 [N-{2,5-Difluoro-4-[(2-{[(3-hydroxyazetidin-1-yl)carbonyl]amino}pyridin-4-yl)oxy]phenyl}-N′-(4-fluorophenyl)cyclopropane-1,1-dicarboxamide] | 370 nM | 26 nM | 10 nM | 4.6 nM | 44 nM |

Reference: US20090227556A1, “RECEPTOR TYROSINE KINASE INHIBITORS COMPRISING PYRIDINE AND PYRIMIDINE DERIVATIVES” (Eisai R&D Management Co., Ltd., priority 2008, published 2009)
